The test system of the assay is 0.25% caffeine solution. Kind of assay: Sensory evaluation: bitterness reduction of a caffeine solution. Particulars: taste and mouth feel comments, dosage per sample. The class given is in vivo. As to the method: The bitter blocker candidates listed in Table 1 were prepared into a 1% sample solution with propylene glycol (i.e., 1 g of bitter blocker per 100 ml of propylene glycol) and heated to ensure complete solubilization. […] A trained sensory evaluator was asked to estimate the perceived bitterness reduction against the control, as well as to provide comments on how the addition of the individual sample solution modulated the taste and mouth feel profile of the resulting caffeine solution.
Regarding `O=c1c(O)c(-c2ccc(O)cc2)oc2cc(O)cc(O)c12` [BB03, Kaempferol], the Comments result is “Some bitterness blocking on sides”.
The same measure for `COc1ccc(-c2cc(=O)c3c(O)cc(O)cc3o2)cc1` [BB01, Acacetin]: “Some bitterness blocking on sides”.
`O=C1c2c(O)cc(O)cc2O[C@H](c2ccc(O)c(O)c2)[C@H]1O` [BB04, Dihydroquercetin]: the Comments entry is recorded as “Some bitterness blocking on sides”.
As for `O=C1c2c(O)cc(O)cc2O[C@H](c2ccc(O)cc2)[C@H]1O` [BB06, Dihydrokaempferol], the Comments entry is on record as “Some bitterness blocking on sides”.

(Values after patent US20230270148A1, “BITTER BLOCKERS AND RELATED METHODS OF USE” (Conagen Inc., priority 2020, published 2023).)
